Reference: patent publication US9278996B2, “Dolastatin-10 derivative, method of producing the same and anticancer drug composition containing the same” (CELLTRION, INC., priority 2012, dated 2016)
Where two headings read alike, the source gives them in different places.

Legend:
Format in all cases: cell-based
[1] = test system: non-small cell lung cancer (NCI-H460); test: Anticancer activity assay (WST-8 cell growth), NCI-H460; conditions: read-out: IC50 (nM) NCI-H460
Protocol: (§1) The compounds of the present invention were assayed for inhibitory activity against 7 cancer cell lines as breast cancer (BT-474), human epithelial cancer (A-431), non-small cell lung cancer (NCI-H460), colon cancer (HT-29), colon cancer (SW-620), breast cancer (MDA-MB-231) and breast cancer (MCF-7).
(§2) Briefly, a suspension of each cancer cell line was serially diluted, and plated at a density of 2˜3×10^3 cells/well into 96-well microplates, followed by incubation at 37° C. for 4 day in a 5% CO2 atmosphere. Cell growth in a monolayer was measured using WST-8 reagemt (Dojindo, Japan).
(§3) IC50 values of the compounds against the cancer cell lines were calculated as compound concentrations at which the cells were grown by 50% OD of the control.

breast cancer (BT-474) = test: Anticancer activity assay (WST-8 cell growth), BT-474; conditions: Homo sapiens, read-out: IC50 (nM) BT-474
Protocol: as §1, §2, §3

breast cancer (MCF-7) = test: Anticancer activity assay (WST-8 cell growth), MCF-7; conditions: read-out: IC50 (nM) MCF-7
Protocol: as §1, §2, §3

colon cancer (SW-620) = test: Anticancer activity assay (WST-8 cell growth), SW-620; conditions: read-out: IC50 (nM) SW-620
Protocol: as §1, §2, §3

[2] = test system: human epithelial cancer (A-431); test: Anticancer activity assay (WST-8 cell growth), A-431
Protocol: as §1, §2, §3

colon cancer (HT-29) = test: Anticancer activity assay (WST-8 cell growth), HT-29; conditions: read-out: IC50 (nM) HT-29
Protocol: as §1, §2, §3

[3] = test system: breast cancer (MDA-MB-231); test: Anticancer activity assay (WST-8 cell growth), MDA-MB-231; conditions: read-out: IC50 (nM) MDA-MB-231
Protocol: as §1, §2, §3

[4] = A-431, 96 h, read-out: IC50 (nM) A-431

CC[C@H](C)[C@@H]([C@@H](CC(=O)N1CC(=O)C[C@@H]1[C@H](OC)[C@@H](C)C(=O)NCCc1ccccc1)OC)N(C)C(=O)[C@@H](NC(=O)[C@H](C(C)C)N(C)C)C(C)C [Compound I-9, (S)-2-((S)-2-(dimethylamino)-3-methylbutaneamido)-N-((3R,4S,5S)-3-methoxy-1-((R)-2-((1R,2R)-1-methoxy-2-methyl-3-oxo-3-(phenethylamino)propyl)-4-oxopyrrolidin-1-yl)-5-methyl-1-oxoheptan-4-yl)-N,3-dimethylbutanamide]
IC50 ([1]; Homo sapiens, NCI-H460, 96 h): 10.9 nM | IC50 (breast cancer (BT-474); BT-474, 96 h): 5.23 nM | IC50 (breast cancer (MCF-7); Homo sapiens, MCF7, 96 h): 27 nM | IC50 (colon cancer (SW-620); Homo sapiens, SW-620, 96 h): 27.7 nM

CC[C@H](C)[C@@H]([C@@H](CC(=O)N1C[C@H](O)C[C@@H]1[C@H](OC)[C@@H](C)C(=O)NCCc1ccccc1)OC)N(C)C(=O)[C@@H](NC(=O)[C@H](C(C)C)N(C)C)C(C)C [Compound I-8, (S)-2-((S)-2-(dimethylamino)-3-methylbutaneamido)-N-((3R,4S,5S)-1-((2R,4R)-4-hydroxy-2-((1R,2R)-1-methoxy-2-methyl-3-oxo-3-(phenethylamino)propyl)pyrrolidin-1-yl)-3-methoxy-5-methyl-1-oxoheptan-4-yl)-N,3-dimethylbutanamide]
IC50 ([1]; Homo sapiens, NCI-H460, 96 h): 1.5 nM | IC50 (breast cancer (BT-474); BT-474, 96 h): 0.68 nM | IC50 (breast cancer (MCF-7); Homo sapiens, MCF7, 96 h): 27 nM | IC50 (colon cancer (SW-620); Homo sapiens, SW-620, 96 h): 2.9 nM

CC[C@H](C)[C@@H]([C@@H](CC(=O)N1C[C@H](OC)C[C@@H]1[C@H](OC)[C@@H](C)C(=O)NCCc1ccc(F)cc1)OC)N(C)C(=O)[C@@H](NC(=O)[C@@H](NC)C(C)C)C(C)C [Compound I-3, (S)—N-((3R,4S,5S)-1-((2R,4R)-2-((1R,2R)-3-((4-fluorophenethyl)amino)-1-methoxy-2-methyl-3-oxopropyl)-4-methoxypyrrolidin-1-yl)-3-methoxy-5-methyl-1-oxoheptan-4-yl)-N,3-dimethyl-2-((S)-3-methyl-2-(methylamino)butaneamido)butanamide]
IC50 (breast cancer (BT-474); BT-474, 96 h): 1.1 nM | IC50 [2, 4]: 37.9 nM

CC[C@H](C)[C@@H]([C@@H](CC(=O)N1C[C@H](OC)C[C@H]1[C@H](OC)[C@@H](C)C(=O)NCC(=O)c1ccccc1)OC)N(C)C(=O)[C@@H](NC(=O)[C@@H](NC)C(C)C)C(C)C [Compound I-34]
IC50 ([1]; Homo sapiens, NCI-H460, 96 h): 10.9 nM | IC50 (breast cancer (BT-474); BT-474, 96 h): 9.71 nM

CC(=O)O[C@H]1C(=O)[C@@]2(C)[C@H]([C@H](OC(=O)c3ccccc3)[C@]3(O)C[C@H](OC(=O)[C@H](O)[C@@H](NC(=O)c4ccccc4)c4ccccc4)C(C)=C1C3(C)C)[C@]1(OC(C)=O)CO[C@@H]1C[C@@H]2O [Paclitaxel, reference compound]
IC50 ([1]; Homo sapiens, 96 h, NCI-H460 cells, 4 day incubation, WST-8): 26.8 nM | IC50 (colon cancer (HT-29); Homo sapiens, 96 h, HT-29 cells, 4 day incubation, WST-8): 19.5 nM | IC50 (breast cancer (BT-474); 96 h, BT-474 cells, 4 day incubation, WST-8): 14.4 nM | IC50 (breast cancer (MCF-7); Homo sapiens, MCF7, 96 h, MCF-7 cells, 4 day incubation, WST-8): 27.1 nM | IC50 (colon cancer (SW-620); Homo sapiens, 96 h, SW-620 cells, 4 day incubation, WST-8): 26.8 nM | IC50 ([3]; Homo sapiens, 96 h, MDA-MB-231 cells, 4 day incubation, WST-8): 90 nM | IC50 ([2]; 96 h, A-431 cells, 4 day incubation, WST-8, read-out: IC50 (nM) A-431): 442 nM

CC[C@H](C)[C@@H]([C@@H](CC(=O)N1C[C@H](OC)C[C@H]1[C@H](OC)[C@@H](C)C(=O)NCC(=O)c1ccc(OC)cc1)OC)N(C)C(=O)[C@@H](NC(=O)[C@@H](NC)C(C)C)C(C)C (stereo in doubt) [Compound I-5, (2S)—N-((3R,4S)-3-methoxy-1-((2R,4R)-4-methoxy-2-((1R,2R)-1-methoxy-3-((2-(4-methoxyphenyl)-2-oxoethyl)amino)-2-methyl-3-oxopropyl)pyrrolidin-1-yl)-5-methyl-1-oxoheptan-4-yl)-N,3-dimethyl-2-((S)-3-methyl-2-(methylamino)butaneamido)butanamide]
IC50 (breast cancer (BT-474); BT-474, 96 h): 0.53 nM | IC50 [2, 4]: 61.2 nM

COc1cccc2c1C(=O)c1c(O)c3c(c(O)c1C2=O)C[C@@](O)(C(=O)CO)C[C@@H]3O[C@H]1C[C@H](N)[C@H](O)[C@H](C)O1 [Doxorubcin, reference compound]
IC50 ([1]; NCI-H460 cells, 4 day incubation, WST-8): 150 nM | IC50 (colon cancer (HT-29); HT-29 cells, 4 day incubation, WST-8): 1.81 nM | IC50 (breast cancer (MCF-7); MCF-7 cells, 4 day incubation, WST-8): 460 nM | IC50 (colon cancer (SW-620); SW-620 cells, 4 day incubation, WST-8): 290 nM | IC50 ([3]; MDA-MB-231 cells, 4 day incubation, WST-8): 850 nM

CC[C@H](C)[C@@H]([C@@H](CC(=O)N1C[C@H](OC)CC1[C@H](OC)[C@@H](C)C(=O)NCCc1cc(F)c(Cl)cc1Cl)OC)N(C)C(=O)[C@@H](NC(=O)[C@@H](NC)C(C)C)C(C)C (some centres unmarked) [Compound I-4]
IC50 (breast cancer (BT-474); BT-474, 96 h): 2.44 nM | IC50 [2, 4]: 21.1 nM

CC[C@H](C)[C@@H]([C@@H](CC(=O)N1C[C@@H](OC)C[C@H]1[C@H](OC)[C@@H](C)C(=O)NCCc1ccccc1)OC)N(C)C(=O)[C@@H](NC(=O)[C@@H](NC)C(C)C)C(C)C [Compound I-33, (2S)—N-((3R,4S)-3-methoxy-1-((2S,45)-4-methoxy-2-((1R,2R)-1-methoxy-2-methyl-3-oxo-3-(phenethylamino)propyl)pyrrolidin-1-yl)-5-methyl-1-oxoheptan-4-yl)-N,3-dimethyl-2-((S)-3-methyl-2-(methylamino)butaneamido)butanamide]
IC50 ([1]; Homo sapiens, NCI-H460, 96 h): 9.4 nM | IC50 (colon cancer (HT-29); Homo sapiens, HT-29, 96 h): 2.82 nM | IC50 (breast cancer (BT-474); BT-474, 96 h): 0.68 nM | IC50 (breast cancer (MCF-7); Homo sapiens, MCF7, 96 h): 1.82 nM | IC50 (colon cancer (SW-620); Homo sapiens, SW-620, 96 h): 5.49 nM | IC50 ([3]; Homo sapiens, MDA-MB-231, 96 h): 2.23 nM

CC[C@H](C)[C@@H]([C@@H](CC(=O)N1C[C@H](OC)C[C@H]1[C@H](OC)[C@@H](C)C(=O)NCC(O)c1ccccc1)OC)N(C)C(=O)[C@@H](NC(=O)[C@@H](NC)C(C)C)C(C)C (stereo partly drawn) [Compound I-35, (2S)—N-((3R,4S)-1-((2S,4R)-2-((1R,2R)-3-(2-(2-hydroxy-2-phenylethyl)amino)-1-methoxy-2-methyl-3-oxopropyl)-4-methoxypyrrolidin-1-yl)-3-methoxy-5-methyl-1-oxoheptan-4-yl)-N,3-dimethyl-2-((S)-3-methyl-2-(methylamino)butaneamido)butanamide]
IC50 ([1]; Homo sapiens, NCI-H460, 96 h): 1.5 nM | IC50 (colon cancer (HT-29); Homo sapiens, HT-29, 96 h): 4.2 nM | IC50 (breast cancer (BT-474); BT-474, 96 h): 0.23 nM | IC50 (colon cancer (SW-620); Homo sapiens, SW-620, 96 h): 2.1 nM

CC[C@H](C)[C@@H]([C@@H](CC(=O)N1C[C@H](OC)C[C@H]1[C@H](OC)[C@@H](C)C(=O)NCC(=O)c1ccccc1C)OC)N(C)C(=O)[C@@H](NC(=O)[C@@H](NC)C(C)C)C(C)C [Compound I-28, (S)—N-((3R,4S,5S)-3-methoxy-1-((2S,4R)-4-methoxy-2-((1R,2R)-1-methoxy-2-methyl-3-oxo-3-((2-oxo-2-(o-tolyl)ethyl)amino)propyl)pyrrolidin-1-yl)-5-methyl-1-oxoheptan-4-yl)-N,3-dimethyl-2-((S)-3-methyl-2-(methylamino)butaneamido)butanamide]
IC50 (breast cancer (BT-474); BT-474, 96 h): 0.65 nM

CC[C@H](C)[C@@H]([C@@H](CC(=O)N1C[C@H](OC)C[C@H]1[C@H](OC)[C@@H](C)C(=O)N[C@H](C)C(N)c1ccccc1)OC)N(C)C(=O)[C@@H](NC(=O)[C@H](C(C)C)N(C)C)C(C)C (mixture of isomers) [Compound I-36, (2S)—N-((3R,4S)-1-((2S)-2-((1R,2R)-3-(((2R)-1-amino-1-phenylpropan-2-yl)amino)-1-methoxy-2-methyl-3-oxopropyl)-4-methoxypyrrolidin-1-yl)-3-methoxy-5-methyl-1-oxoheptan-4-yl)-2-((S)-2-(dimethylamino)-3-methylbutaneamido)-N,3-dimethylbutanamide]
IC50 (breast cancer (BT-474); BT-474, 96 h): 0.51 nM

CC[C@H](C)[C@@H]([C@@H](CC(=O)N1C[C@H](OC)CC1[C@H](OC)[C@@H](C)C(=O)NCC(=O)c1ccc(F)cc1C)OC)N(C)C(=O)[C@@H](NC(=O)[C@@H](NC)C(C)C)C(C)C (some centres unmarked) [Compound I-27]
IC50 (breast cancer (BT-474); BT-474, 96 h): 0.5 nM
